# Assay results reported in patent publication US8691727B2, “Pesticidal compositions” (Syngenta Crop Protection, LLC, priority 2005, dated 2014).
# Columns and labels:
# [1] = tested on: F. subglutinans; assay: Agar test: seed contamination and mycelium growth on artificially infected corn seeds; type: cell-based, Fusarium subglutinans; details: corn cv. Magister; for FUSSUB Activity Observed / FUSSUB Contaminated Seeds / FUSSUB Mycelium Growth: after 6 days
# Experimental: (§1) An agar test is performed to evaluate the effect of seed treatments with fludioxonil (2.5 g/100 kg seed)+mefenoxam (1.0 g/100 kg seed), thiabendazole at 10, 15 and 20 g/100 kg seed and the corresponding mixtures of all three components on seed health and viability of corn. Seed lots of corn cv. Magister, is infected artificially with either F. proliferatum or F. subglutinans, are used.
# (§2) Czapek-Dox medium (OXOID) is prepared according to manufacturer's recipe: 45.4 g agar in 1 l aqua bidest., autoclaved for 15 min at 121° C., and is cooled down to 55° C. 15 ml medium is poured into each petridish (Ø 10 cm) and is allowed to cool.
# (§3) 10 seeds are placed on the surface of the agar. 5 replicates per treatment are done. Petridishes are placed in an incubator at 20° C. under NUV-light (12 h a day). The number of seeds where Fusarium spp. grew out on the agar is rated after an incubation period of 6 days.
# (§4) • Mefenoxam (1.0 g ai/100 kg seed)+fludioxonil (2.5 g ai/100 kg seed). • Thiabendazole at 10, 15 and 20 g ai/100 kg seed. • Mefenoxam (1.0 g ai/100 kg seed)+fludioxonil (2.5 g ai/100 kg seed)+thiabendazole (at 10, 15 or 20 g ai/100 kg seed).
# (§5) For combined treatments mefenoxam+fludioxonil are applied first on the seeds as a combined formulation and after drying the second application on the seeds with thiabendazole is performed.
# [2] = tested on: F. proliferatum; assay: as above; type: cell-based, Fusarium proliferatum; details: corn cv. Magister, after 6 days
# Experimental: as §1, §2, §3, §4, §5
# [3] = thiabendazole 10 g ai/100 kg seed (mixture: plus mefenoxam 1.0 g + fludioxonil 2.5 g ai/100 kg seed)
# [4] = thiabendazole 15 g ai/100 kg seed (mixture: plus mefenoxam 1.0 g + fludioxonil 2.5 g ai/100 kg seed)
# [5] = thiabendazole 20 g ai/100 kg seed (mixture: plus mefenoxam 1.0 g + fludioxonil 2.5 g ai/100 kg seed)
structure (smiles),measurement,setting,value
"c1ccc2[nH]c(-c3cscn3)nc2c1 [Thiabendazole, thiabendazole]",FUSSUB Activity Observed,[1]; [3],32%
same,FUSSUB Contaminated Seeds,[1]; [3],94%
same,FUSSUB Mycelium Growth,[1]; [3],68%
same,FUSSUB Activity Observed,[1]; [4],60%
same,FUSSUB Contaminated Seeds,[1]; [4],100%
same,FUSSUB Mycelium Growth,[1]; [4],40%
same,FUSSUB Activity Observed,[1]; [5],91%
same,FUSSUB Contaminated Seeds,[1]; [5],52%
same,FUSSUB Mycelium Growth,[1]; [5],9%
same,"Mycelium growth, dose response (in words)","[1]; thiabendazole at 10, 15 and 20 g ai/100 kg seed",linear dose response
same,FUSPRO Activity Observed,[2]; [3],40%
same,FUSPRO Contaminated Seeds,[2]; [3],62%
same,FUSPRO Mycelium Growth,[2]; [3],~60%
same,FUSPRO Contaminated Seeds,[2]; [4],44%
same,FUSPRO Contaminated Seeds,[2]; [5],40%
same,FUSPRO Contaminated Seeds,"[2]; thiabendazole 20 g ai/100 kg seed (mixture: plus mefenoxam 1.0 g + fludioxonil 2.5 g ai/100 kg seed), listed as thiabendazole",reduces the number of Fusarium infected seeds
